According to ChEMBL document CHEMBL1614632, “Trend analysis of a database of intravenous pharmacokinetic parameters in humans for 670 drug compounds” (Drug Metab Dispos, 2008):

How the values were obtained:
clinical [1] = conditions: human, in vivo, iv
clinical [2] = conditions: human, in vivo, iv; remark: listed apart in the source
clinical [3] = conditions: human, in vivo, iv, t1/2
clinical [4] = conditions: human, in vivo, iv, Vdss
clinical [5] = conditions: human, in vivo, iv, CL

| Compound | fraction unbound (clinical [1]) | MRT (clinical [2]) [h] | half-life (clinical [3]) [h] | Vd (clinical [4]) [L/kg] | clearance (clinical [5]) [mL/min/kg] |
| --- | --- | --- | --- | --- | --- |
| COC(=O)[C@H]1[C@@H](OC(=O)c2ccccc2)C[C@@H]2CC[C@H]1N2C [COCAINE] | 0.12 | 1 | 0.76 | – | – |
| CC[C@@]1(O)C(=O)OCc2c1cc1n(c2=O)Cc2cc3c(CN(C)C)c(O)ccc3nc2-1 [TOPOTECAN] | 0.65 | – | – | – | – |
| CCCC(=O)OCOC(=O)C1=C(C)NC(C)=C(C(=O)OC)C1c1cccc(Cl)c1Cl (stereo not drawn) [CLEVIDIPINE] | 0.0038 | 0.07 | 0.3 | 0.58 | – |
| CN(C)CCCN1c2ccccc2CCc2ccccc21 [IMIPRAMINE] | 0.075 | – | – | 12 | – |
| O=c1[nH]cc(F)c(=O)[nH]1 [FLUOROURACIL] | 0.64 | – | – | – | – |
| O=C1CN(/N=C/c2ccc([N+](=O)[O-])o2)C(=O)N1 [NITROFURANTOIN] | 0.17 | 0.98 | 0.97 | 0.57 | – |
| CN1CCCC(n2nc(Cc3ccc(Cl)cc3)c3ccccc3c2=O)CC1 (stereo not drawn) [AZELASTINE] | 0.17 | 27 | 22 | – | 9 |
| CCCCCCCCCCNCCN[C@@]1(C)C[C@H](O[C@H]2[C@H](Oc3c4cc5cc3Oc3ccc(cc3Cl)[C@@H](O)[C@@H](NC(=O)[C@@H](CC(C)C)NC)C(=O)N[C@@H](CC(N)=O)C(=O)N[C@H]5C(=O)N[C@H]3C(=O)N[C@H](C(=O)N[C@H](C(=O)O)c5cc(O)c(CNCP(=O)(O)O)c(O)c5-c5cc3ccc5O)[C@H](O)c3ccc(c(Cl)c3)O4)O[C@H](CO)[C@@H](O)[C@@H]2O)O[C@@H](C)[C@H]1O [TELAVANCIN] | 0.07 | 9.2 | 6.7 | – | 0.2 |
| N[C@@H](Cc1ccc(O)c(O)c1)C(=O)O [LEVODOPA] | 0.76 | 1.2 | 1.3 | – | – |
| CO[C@@]1(NC(=O)C2SC(=C(C(N)=O)C(=O)O)S2)C(=O)N2C(C(=O)O)=C(CSc3nnnn3C)CS[C@@H]21 (stereo partly drawn) [CEFOTETAN] | 0.15 | 5.2 | 4.5 | – | 0.42 |
| CCCCC(=O)N(Cc1ccc(-c2ccccc2-c2nnn[nH]2)cc1)[C@H](C(=O)O)C(C)C | 0.04 | 7.5 | 9.5 | – | 0.49 |
| Cc1cccc(C)c1NC(=O)NCCCNC(C)C | 0.86 | 5.2 | 5 | – | 4.5 |
| COc1ccc(Cl)cc1C(=O)NCCc1ccc(S(=O)(=O)NC(=O)NC2CCCCC2)cc1 [GLYBURIDE] | 0.021 | 1.6 | 2.2 | 0.08 | – |
| CCN(CC)CC#CCOC(=O)C(O)(c1ccccc1)C1CCCCC1 (stereo not drawn) [OXYBUTYNIN] | 0.0034 | 2.7 | 7.2 | 0.85 | – |
| COc1ccc2c3c1O[C@H]1C(=O)CC[C@@]4(O)[C@@H](C2)N(C)CC[C@]314 [OXYCODONE] | 0.55 | 6.8 | 5.5 | – | 6.1 |
| NC(=O)c1ncn([C@@H]2O[C@H](CO)[C@@H](O)[C@H]2O)n1 [RIBAVIRIN] | 1 | 45 | 45 | – | 5.2 |
| CCOc1ccc(NC(C)=O)cc1 [PHENACETIN] | 0.47 | 1.1 | 0.92 | 1.4 | – |
| CC(CN1c2ccccc2Sc2ccccc21)N(C)C (stereo not drawn) [PROMETHAZINE] | 0.09 | – | – | – | – |
| CN[C@@H]1[C@@H](O)[C@@H](O[C@@H]2[C@@H](O)[C@H](O[C@H]3O[C@H](CN)[C@@H](O)[C@H](O)[C@H]3O)[C@@H](N)C[C@H]2NC(=O)[C@@H](O)CN)OC[C@]1(C)O [ISEPAMICIN] | 0.95 | 4.1 | 24 | – | 1.3 |
| C=CCN1CC[C@]23c4c5ccc(O)c4O[C@H]2C(=O)CC[C@@]3(O)[C@H]1C5 [NALOXONE] | 0.54 | 1.2 | 1.1 | 1.7 | – |
| C[C@]12C=CC(=O)C=C1CC[C@@H]1[C@@H]2[C@@H](O)C[C@@]2(C)[C@H]1CC[C@]2(O)C(=O)CO [PREDNISOLONE] | 0.25 | – | – | – | – |

| Compound | fraction unbound (clinical [1]) | MRT (clinical [2]) [h] | half-life (clinical [3]) [h] | Vd (clinical [4]) [L/kg] | clearance (clinical [5]) [mL/min/kg] |
| --- | --- | --- | --- | --- | --- |
| Nc1ccc(S(=O)(=O)c2ccc(N)cc2)cc1 [DAPSONE] | 0.25 | 29 | – | 0.83 | – |
| CC(=O)Nc1c(I)c(NC(C)=O)c(I)c(C(=O)O)c1I [DIATRIZOIC ACID] | 1 | 2.6 | – | – | 1.7 |
| CC(=O)O[C@H]1C[C@@H]2CC[C@@H]3[C@H](CC[C@@]4(C)[C@H]3C[C@H]([N+]3(C)CCCCC3)[C@@H]4OC(C)=O)[C@@]2(C)C[C@@H]1[N+]1(C)CCCCC1 [PANCURONIUM] | 0.09 | 2.2 | 1.9 | 0.2 | – |
| C[C@@H](c1ncncc1F)[C@](O)(Cn1cncn1)c1ccc(F)cc1F [VORICONAZOLE] | 0.42 | 4.4 | 5.6 | 2.2 | – |
| CCN(C(C)=O)c1cccc(-c2ccnc3c(C#N)cnn23)c1 [ZALEPLON] | 0.4 | 1.4 | – | 1.3 | – |
| N=C(N)c1ccc(C(=O)N[C@@H](Cc2ccc(O)cc2)C(=O)N2CCC(OCC(=O)O)CC2)cc1 [LAMIFIBAN] | 0.94 | 2.5 | 2.1 | – | – |
| Cc1cn([C@H]2C[C@H](N=[N+]=[N-])[C@@H](CO)O2)c(=O)[nH]c1=O [ZIDOVUDINE] | 0.8 | 1.2 | 1.3 | 1.8 | – |
| COC(=O)Nc1nc2ccc(C(=O)c3ccccc3)cc2[nH]1 [MEBENDAZOLE] | – | 1.3 | 1.1 | 1.2 | 15 |
| Cc1[nH]c(=O)c(C#N)cc1-c1ccncc1 [MILRINONE] | – | 0.67 | 0.8 | 0.25 | 6.2 |
| Cc1c(OCC(F)(F)F)ccnc1C[S+]([O-])c1nc2ccccc2[nH]1 (stereo not drawn) [LANSOPRAZOLE] | – | 1.1 | 1 | 0.28 | 4.4 |
| CCOC(=O)[C@]1(c2ccccc2)CCC=C[C@H]1NC [NORTILIDINE] | – | 4.2 | 4.4 | 2.5 | 9.9 |
| C[C@](N)(Cc1ccc(O)c(O)c1)C(=O)O [METHYLDOPA] | – | 3.3 | 5.9 | 0.69 | 3.5 |
| COc1ccc2c(c1)N(C[C@H](C)CN(C)C)c1ccccc1S2 [LEVOMEPROMAZINE] | – | 21 | 30 | 12 | 9.9 |
| C[C@@H](O)[C@H]1C(=O)N2C(C(=O)O)=C(SCCOC(N)=O)S[C@H]12 [Sch-34343] | 0.35 | 0.67 | 0.8 | 0.3 | – |
| CC(C)(C)NCC(O)c1cc(O)cc(O)c1 (stereo not drawn) [TERBUTALINE] | – | 7.4 | 15 | 1.5 | 3.4 |
| CC[C@H](C)C(=O)O[C@H]1C[C@@H](C)C=C2C=C[C@H](C)[C@H](CC[C@@H]3C[C@@H](O)CC(=O)O3)[C@H]21 [LOVASTATIN] | – | 1.3 | 1.4 | 0.87 | 7.2 |
| CC1=C(C(=O)O)N2C(=O)[C@@H](NC(=O)[C@H](N)c3ccc(O)cc3)[C@H]2SC1 [CEFADROXIL] | – | 1.5 | 1.1 | 0.23 | 2.5 |
| C[C@@H]1O[C@@H]1P(=O)(O)O [FOSFOMYCIN] | – | 2.7 | 1.9 | 0.32 | 2 |
| COc1ccc(-c2nc3ccc(C4=NNC(=O)CC4C)cc3[nH]2)cc1 (stereo not drawn) [PIMOBENDAN] | 0.024 | 2.2 | 1.8 | 2.04 | – |
| Nc1nc(O)c2ncn(COC(CO)CO)c2n1 [GANCICLOVIR] | – | 3.7 | 3.7 | 1 | 4.6 |
| O=C1NCC2(CCN(CCc3ccccc3)CC2)O1 [FENSPIRIDE] | – | 19 | 14 | 3 | 2.6 |
